# Source: paper PMC7611940, “A Conformation Selective Mode of Inhibiting SRC Improves Drug Efficacy and Tolerability” (Cancer Research, 2021)
# Biological target: SRC (Homo sapiens, UniProt P12931)
# Assay: inhibition of SRC autophosphorylation (pY419) in cells, Western blot
# Type: cell-based
# Chain of SRC (P12931 2-536): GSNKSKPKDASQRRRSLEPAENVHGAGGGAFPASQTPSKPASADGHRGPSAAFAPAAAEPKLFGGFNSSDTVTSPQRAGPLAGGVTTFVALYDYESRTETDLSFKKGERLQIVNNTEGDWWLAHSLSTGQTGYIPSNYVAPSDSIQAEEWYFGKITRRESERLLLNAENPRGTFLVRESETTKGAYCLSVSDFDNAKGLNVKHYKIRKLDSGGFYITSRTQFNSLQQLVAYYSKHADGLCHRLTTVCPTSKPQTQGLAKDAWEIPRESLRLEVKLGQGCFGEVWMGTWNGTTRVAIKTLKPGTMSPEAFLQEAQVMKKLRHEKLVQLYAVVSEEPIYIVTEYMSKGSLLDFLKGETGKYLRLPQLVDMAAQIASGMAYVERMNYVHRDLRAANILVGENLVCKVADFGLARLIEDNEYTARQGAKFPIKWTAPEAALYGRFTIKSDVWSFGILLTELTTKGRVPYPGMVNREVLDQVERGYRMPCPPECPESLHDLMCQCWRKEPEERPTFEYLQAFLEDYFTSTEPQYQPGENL
smiles,measurement,value
COc1cc(Nc2c(C#N)cnc3cc(OCCCN4CCN(C)CC4)c(OC)cc23)c(Cl)cc1Cl [bosutinib],"inhibition of SRC autophosphorylation (pY419) in cells, Western blot",Bosutinib and saracatinib displayed weaker inhibition of SRC autophosphorylation in all the cell lines tested
